This passage reports EC50, fold more peptide than E1 for equivalent H2K^b stabilization and fold more peptide than OVA for equivalent H2K^b stabilization results from PMC4072806, “Defining Immune Engagement Thresholds for In Vivo Control of Virus-Driven Lymphoproliferation” (PLoS Pathogens, 2014).

For test [1], the system named is OT-I CTL (H2K^b-OVA-specific TcR of OT-I). Briefly: Functional avidity of OT-I CTL by IFNγ production (ELISA). As to conditions: Figure 1C, naive OT-I CD8+ T cells with peptide-loaded irradiated RMA/S cells, 72 h 37°C, repeated in duplicates 4 times, read-out: OT-I sensitivity EC50. It is filed as cell-based, mouse. A general note: An ELISA detects its analyte on a solid surface through an enzyme-linked reagent.

The target in another test is T1, H2K^b (Mus musculus, UniProt P01901).
T1 construct: […]; endogenous in cells; host or cells: RMA/S cells (TAP-deficient)
The class given is cell-based. The procedure: H2K^b stabilization was determined with TAP-deficient RMA/S cells. These were incubated overnight at 26°C to promote the export of empty H2K^b complexes, then loaded with graded concentrations of OVA or APL peptides (Thermo Scientific) for 2 h at 26°C and subsequently transferred to 37°C for 2 h to destabilize empty MHC molecules. The cells were then washed twice, stained with anti-H2K^b (AF6-88.5.5.3, eBioscience), and analysed on a LSR Fortessa (BD Biosciences). Mean fluorescence intensities were determined with FlowJo (Tree Star). To measure the ex vivo stimulation of naïve OT-I T cells by OVA and APLs, CD8^+ T cells from the spleens of naïve OT-I mice were purified by negative selection (CD8^+ T cell isolation kit, Miltenyi Biotech); for equivalent peptide/MHC class I numbers, irradiated (7500 rads) RMA/S cells were loaded with different peptides at 26°C, then incubated at 37°C; and 5×10^4 OT-I T cells were cultured with 2.5×10^4 RMA/S cells for 72 h at 37°C. IFNγ levels in culture supernatants were measured by ELISA (DuoSet ELISA development kit, R&D Systems). The data were fitted to sigmoidal dose-response curves and EC50 values calculated using GraphPad Prism.

For test [2], the target named is H2K^b (MHC class I, empty complexes on TAP-deficient RMA/S cells) (mouse (endogenous in RMA/S)).
[3] abbreviates: Figure 1B, TAP-deficient RMA/S cells, peptide 2 h 26°C then 2 h 37°C, anti-H2K^b FACS MFI, experiment repeated 3 times, read-out: EC50 (H2K^b stabilization).

Like-named read-outs stand apart in the source and are kept apart here. No end group written: not given here.

EIINFEKL [E1]: the EC50 in test [1] was 7780 nM; at H2K^b (setting [3]), 235 nM.
Take SIIQFEKL [Q4]: the EC50 in test [1] worked out at 0.243 nM; on H2K^b (setting [3]), 30 nM.
As for “A8 altered peptide ligand of OVA (mutated anchor residue)”, the fold more peptide than E1 for equivalent H2K^b stabilization in test [2] came to 10 fold.
On to SIINFEKA [A8], for which the EC50 is 10300 nM in test [1] and 2470 nM on H2K^b (setting [3]).
With SIIGFEKL [G4], the EC50 was found to be 3610 nM in test [1] and 34 nM on H2K^b (setting [3]).
As to “E1 altered peptide ligand of OVA (EIINFEKL)”, in test [2], the fold more peptide than OVA for equivalent H2K^b stabilization was found to be 6 fold.
With SIIVFEKL [V4], the EC50 came out at 68.5 nM in test [1] and 63 nM on H2K^b (setting [3]).
`CC[C@H](C)[C@H](NC(=O)[C@@H](NC(=O)[C@@H](N)CO)[C@@H](C)CC)C(=O)N[C@@H](CC(N)=O)C(=O)N[C@@H](Cc1ccccc1)C(=O)N[C@@H](CCC(=O)O)C(=O)N[C@@H](CCCCN)C(=O)N[C@@H](CC(C)C)C(=O)O` [OVA, reference compound]: the EC50 in test [1] was 0.0182 nM; at H2K^b (RMA/S cells, read-out: concentration giving 50% maximal H2K^b stabilization (EC50)) it was 40 nM.
Regarding SIIRFEKL [R4], the EC50 on H2K^b (setting [3]) is 56 nM.
On to “OVA peptide, amino acid residues 257-264 of ovalbumin (SIINFEKL)”, for which, in test [2], the EC50 worked out at 40 nM.
